Key:
CD1 female mice = test: Visual observation of mice given CP; assay type: in vivo, mouse; settings: PND 35, PND 50 and adult mice; 3 mg/kg i.p.
Protocol: The Bloomington Institutional Animal Care and Use Committee of Indiana University reviewed and approved the animal procedures. Female mice from the CD1 strain were utilized to match our study examining THC’s effects on the brain lipidome ([Leishman et al., 2018]). Mice were given a single i.p. injection of either 3 mg/kg CP or 1:1:18 cremophor:ethanol:saline vehicle (please refer to the section “3 mg/kg CP Is Relevant for Synthetic Cannabinoid Abuse and Has Stronger Effects on the Female Mouse Brain Lipidome During Adolescence” for a justification of dose and use of female mice). Three different age groups were given injections: PND 35 and PND 50 adolescents, and adult mice (PND 113). At least eight mice in each age group received CP and at least eight received vehicle. Matching the THC study time course ([Leishman et al., 2018]), mice were sacrificed via rapid decapitation 2 h after injection. Brains were immediately removed and flash-frozen in liquid nitrogen, and then stored at -80°C until dissections were performed. Brains were dissected on an ice-cold dissection plate into the following regions: STR, HIPP, CER, THAL, CTX, HYP, MID, and STEM. These abbreviations for these brain areas will be used exclusively when discussing the results generated by these specific dissections. […]

CB1 [1] = settings: cited from earlier work
CB1 [2] = test system: CB1; parameters: method as in Felder et al., 1995; settings: ref Felder et al., 1995; read-out: IC50, inhibition of adenylate cyclase at CB1; cited from earlier work
CB2 = test system: CB2; parameters: method as in Felder et al., 1995; settings: ref Felder et al., 1995; read-out: IC50, inhibition of adenylate cyclase at CB2; cited from earlier work
rats [3] = test system: rats; parameters: method as in McGregor et al., 1996; settings: acute injection of 0.1 mg/kg, ref McGregor et al., 1996; cited from earlier work
rats [4] = test system: rats; parameters: method as in Higuera-Matas et al., 2010; settings: ref Higuera-Matas et al., 2010, cited from earlier work
[5] = parameters: method as in earlier work; settings: ref Ferrari et al., 2000; Lopez et al., 2009; Gorzalka et al., 2010; cited from earlier work
[6] = test system: CD1 female mouse brain lipidome; test: Brain-region lipid levels (HPLC/MS/MS lipidomics) 2 h after single i.p. 3 mg/kg CP 55,940 vs vehicle; assay type: in vivo
Protocol: The Bloomington Institutional Animal Care and Use Committee of Indiana University reviewed and approved the animal procedures. Female mice from the CD1 strain were utilized to match our study examining THC’s effects on the brain lipidome ([Leishman et al., 2018]). Mice were given a single i.p. injection of either 3 mg/kg CP or 1:1:18 cremophor:ethanol:saline vehicle (please refer to the section “3 mg/kg CP Is Relevant for Synthetic Cannabinoid Abuse and Has Stronger Effects on the Female Mouse Brain Lipidome During Adolescence” for a justification of dose and use of female mice). Three different age groups were given injections: PND 35 and PND 50 adolescents, and adult mice (PND 113). At least eight mice in each age group received CP and at least eight received vehicle. Matching the THC study time course ([Leishman et al., 2018]), mice were sacrificed via rapid decapitation 2 h after injection. Brains were immediately removed and flash-frozen in liquid nitrogen, and then stored at -80°C until dissections were performed. Brains were dissected on an ice-cold dissection plate into the following regions: STR, HIPP, CER, THAL, CTX, HYP, MID, and STEM. These abbreviations for these brain areas will be used exclusively when discussing the results generated by these specific dissections. Each dissected area was immediately placed in liquid nitrogen and then stored at -80°C until used for lipid extraction.
Tissue extracts were performed as previously described ([Bradshaw et al., 2006]; [Stuart et al., 2013]; [Raboune et al., 2014]; [Leishman et al., 2016a],[b], [2017], [2018]). First, samples were shock frozen in liquid nitrogen, weighed, and transferred to a centrifuge tube. The mass of the largest sample was multiplied by 50 to determine how many milliliters of HPLC-grade methanol (Fisher, Fair Lawn, NJ, United States) to add. Then, samples were spiked with 500 pmol deuterium-labeled NAGly (d8NAGly; Cayman Chemical, Ann Arbor, MI, United States). Samples were placed on ice in darkness for 2 h then individually homogenized and centrifuged at 19,000 × g for 20 min at 20°C. Supernatants were diluted with HPLC water (purified in house) to make a solution of 75% water, 25% supernatant. Lipids were partially purified on C18 solid phase extraction columns (Agilent, Palo Alto, CA, United States). A series of four elutions with 1.5 mL of 60%, 75%, 85%, and 100% methanol were collected ([Stuart et al., 2013]; [Leishman et al., 2016a],[b], [2018]).
As previously described ([Bradshaw et al., 2006]; [Tan et al., 2006]; [Smoum et al., 2010]; [Stuart et al., 2013]; [Tortoriello et al., 2013]; [Raboune et al., 2014]; [Leishman et al., 2016a],[b], [2017], [2018]), samples were analyzed using an Applied Biosystems API 3000 triple quadrupole mass spectrometer with electrospray ionization (Foster City, CA, United States). Using an Agilent XDB-C18 reversed phase analytical column and optimized mobile phase gradients, 20 μL from each elution were chromatographed. Two Shimadzu 10ADvp pumps (Columbia, MD, United States) provided the pressure for gradient elution. Mobile phase A: 20% methanol, 80% water (v/v) and 1 mM ammonium acetate (Sigma, St. Louis, MO, United States). Mobile phase B: 100% methanol, 1 mM ammonium acetate. Every method run began with 0% mobile phase B, reached 100% mobile phase B flowing at 0.2 mL/min, and gradually returned to 0% mobile phase B.
This screening library will be referred to as the lipidome when discussing data from this study. HPLC/MS/MS data were analyzed using Analyst software (Applied Biosystems) ([Bradshaw et al., 2006]; [Tan et al., 2006]; [Stuart et al., 2013]; [Tortoriello et al., 2013]; [Raboune et al., 2014]; [Leishman et al., 2016a],[b], [2017], [2018]). Chromatograms (Supplementary Figure 3) were generated by determining the retention time of analytes from the analytical column with a [M-1] or [M+1] parent peak and a fragmentation peak corresponding to the programmed values. […]

Compound: CCCCCCC(C)(C)c1ccc([C@@H]2C[C@H](O)CC[C@H]2CCCO)c(O)c1 [CP 55,940]
- locomotor activity (visual observation) (CD1 female mice): profoundly reduced locomotor activity
- mortality (CD1 female mice): no mortality
- potency relative to THC (CB1 [1]; cannabinoid receptors, ref Showalter et al., 1996, Besnard et al., 2012): ~10 fold
- EC50 (CB1 [1]; ref Brents et al., 2011, read-out: EC50, stimulated G-protein binding at CB1): 3.4 nM
- DAT in the caudate-putamen (rats [4]; rats, CP during adolescence): upregulated
- dopamine D2 receptor levels in the HIPP (rats [4]; rats, CP during adolescence): decreased
- doses attenuating social motivation [5]: over 0.4 mg/kg
- PGF2α level, Mean ([6]; adult cortex, 3mg/kg CP 55,940): 2.77E-10
- PGF2α level, Mean ([6]; adult female mice, brainstem, 3mg/kg CP 55,940): 1.69E-10
- PGF2α level, Mean ([6]; adult hypothalamus, 3 mg/kg CP 55,940): 2.18E-10
- PGF2α level, Mean ([6]; adult midbrain, 3mg/kg CP 55,940): 2.91E-10
- PGF2α level, Mean ([6]; brainstem, PND 50, 3 mg/kg CP 55,940): 1.26E-10
- PGF2α level, Mean ([6]; cerebellum, WT adult female mice, 3mg/kg CP 55,940): 2.22E-10
- PGF2α level, Mean ([6]; cerebellum, PND35 WT female mice, 3mg/kg CP 55,940): 3.05E-10
- PGF2α level, Mean ([6]; cortex, PND 50 female mice, 3mg/kg CP 55,940): 1.71E-10
- PGF2α level, Mean ([6]; cortex, PND 35 adolescent female mice, 3 mg/kg CP 55,940): 3.11E-10
- PGF2α level, Mean ([6]; hippocampus, adult, 3 mg/kg CP 55,940): 3.25E-10
- PGF2α level, Mean ([6]; hippocampus, PND 35 WT female mice, 3mg/kg CP 55,940): 9.18E-10
- PGF2α level, Mean ([6]; hypothalamus, PND 50 female mice, 3mg/kg CP 55,940): 1.35E-10
- PGF2α level, Mean ([6]; midbrain, PND 50 female mice, 3mg/kg CP 55,940): 1.57E-10
- PGF2α level, Mean ([6]; striatum, adult, 3 mg/kg CP 55,940): 2.43E-10
- PGF2α level, Mean ([6]; thalamus, WT adult female mice, 3mg/kg CP 55,940): 2.22E-10
- PGF2α level, Mean ([6]; thalamus, PND 35 adolescent female mice, 3 mg/kg CP 55,940): 5.11E-10

Source: PMC6277767, “Broad and Region-Specific Impacts of the Synthetic Cannabinoid CP 55,940 in Adolescent and Adult Female Mouse Brains” (Frontiers in Molecular Neuroscience, 2018)
